Experimental data: patent US12435128B2, “Method for predicting therapeutic effect of LSD1 inhibitor based on expression of INSM1” (TAIHO PHARMACEUTICAL CO., LTD., priority 2017, dated 2025)

Experiments:
[1] = tested on: HEL cells (human acute myelocytic leukemia cell lines); experiment: Cell-growth inhibition test: HEL cells; assay type: cell-based; settings: read-out: IC50 (nM), Cell-Growth Inhibition Test: HEL Cells
[2] = tested on: NCI-H1417 cells (human small-cell lung cancer cell lines); experiment: Cell-growth inhibition test: NCI-H1417 cells; assay type: cell-based; settings: read-out: IC50 (nM), Cell-Growth Inhibition Test: NCI-H1417 Cells
[3] = tested on: NCI-H146 cells (human small-cell lung cancer cell lines); experiment: Cell-growth inhibition test: NCI-H146 cells; assay type: cell-based; settings: NCI-H146 cells; read-out: IC50 (nM), Cell-Growth Inhibition Test: NCI-H146 Cells
Protocol: Under the following conditions, an in vitro cell-growth inhibition test was performed with respect to HEL cells (human acute myelocytic leukemia cell lines), NCI-H1417 cells (human small-cell lung cancer cell lines), and NCI-H146 cells (human small-cell lung cancer cell lines).
The cells with the Example compound or with dimethylsulfoxide alone were cultured at 37° C. in a 5% carbon-dioxide-containing incubator for 5 days (HEL cells) or 10 days (NCI-H1417 cells and NCI-H146 cells). After culture, the plate was allowed to stand at room temperature for 30 minutes, and 100 μL of the supernatant was removed from each well to leave 100 μL of the cell culture solution. To each well containing the remaining 100 μL of the cell culture solution, the same amount of CellTiter-Glo 2.0 Assay (Promega, Cat #: G9242) was added. The microplate was shaken with a plate mixer for 1 minute and then allowed to stand in a dark place for 10 minutes. Thereafter, the luminescence intensity of viable cells in each well was measured using a microplate reader (PerkinElmer, EnSpire). […] Cell growth rate(%)=T/C×100 • T: The luminescence intensity in a well to which the test compound was added (count per second) • C: The luminescence intensity in a well to which dimethylsulfoxide alone was added (count per second)

NCI-H1417 cells = experiment: Cell-growth inhibitory effects of LSD1 inhibitor on sensitive strain NCI-H1417; assay type: cell-based, human; settings: 10 days
Protocol: (§1) As a medium, 10% FBS-containing RPMI1640 was used. Cell lines were seeded in a 96-well flat-bottom microplate in an amount of 120 μL, and a well containing 160 μL of medium alone was also prepared for background measurement. […] After culture, the microplate was allowed to stand at room temperature for 30 minutes. To 160 μL of the cell culture solution or the medium containing no cells, 140 μL of CellTiter-Glo 2.0 Assay (Promega) was added. After the microplate was allowed to stand at room temperature for 10 minutes, the luminescence intensity of viable cells in each well was measured using a microplate reader (PerkinElmer, EnSpire). The IC35 of each drug was obtained in the same manner as above.

DMS79 cells = experiment: Cell-growth inhibitory effects of LSD1 inhibitor on non-sensitive strain DMS79; assay type: cell-based, human; settings: 10 days
Protocol: as §1

[4] = tested on: NCI-H146 cells (human small-cell lung cancer cell lines); experiment: Antitumor effect test using NCI-H146 cells subcutaneously implanted into mice (T/C %); assay type: in vivo; settings: NCI-H146 in BALB/cAJcl-nu/nu mice
Protocol: To 5 mice in each group, a vehicle (0.5% hydroxymethylpropylcellulose containing 0.1 N HCL) or each Example compound was orally administered. […] The major axis and the minor axis of each tumor were measured twice a week with an electric caliper to calculate the tumor volume (TV). According to the tumor volumes thus obtained, a relative tumor volume (RTV) and a relative tumor volume change (T/C (%)) were calculated. The TV, RTV, and T/C (%) were calculated using the following equations. Tumor volume TV(mm^3)=(major axis, mm)×(minor axis, mm)×(minor axis, mm)/2 Relative tumor volume RTV=TV/(TV on the grouping day) T/C(%)=(average RTV of administration group)/(average RTV of vehicle administration group)×100.
The final measurement day was the day following the final administration day.

| SMILES | IC50 [1] | IC50 [2] | IC50 [3] | growth inhibitory effects (NCI-H1417 cells) | growth inhibitory effects (DMS79 cells) | T/C (%) ([4]; 25 mg/kg orally once a day, 21 consecutive days) | T/C (%) ([4]; 40 mg/kg orally once a day, 28 consecutive days) |
| --- | --- | --- | --- | --- | --- | --- | --- |
| CCC(O)(CC)Cn1nnc2cc(-c3ccc(C(=O)N4[C@@H]5CC[C@H]4[C@@H](N)C5)cc3-c3ccc(C#N)c(F)c3)c(F)c(F)c21 (single isomer, unassigned) [Example 214] | 0.44 nM | 0.47 nM | 2.58 nM | showed growth inhibitory effects | did not show growth inhibitory effects | – | – |
| CC(C)(O)Cn1nnc2cc(-c3ccc(CN4[C@@H]5CC[C@H]4[C@@H](N)C5)cc3-c3ccc(C#N)c(F)c3)c(F)c(F)c21.Cl.Cl (single isomer, unassigned) [Example 285] | – | – | – | showed growth inhibitory effects | did not show growth inhibitory effects | – | – |
| CC(C)(O)Cc1ccc(-c2ccc(C(=O)N3[C@@H]4CC[C@H]3C[C@@H](N)C4)cc2-c2ccc(C#N)c(F)c2)c(F)c1 [Example 41, 4-[5-[(3-endo)-3-amino-8-azabicyclo[3.2.1]octane-8-carbonyl]-2-[2-fluoro-4-(2-hydroxy-2-methyl-propyl)phenyl]phenyl]-2-fluoro-benzonitrile] | – | – | – | showed growth inhibitory effects | did not show growth inhibitory effects | 19% | – |
| CC(C)(O)Cn1nnc2cc(-c3ccc(C(=O)N4[C@@H]5CC[C@H]4C[C@@H](N)C5)cc3-c3ccc(C#N)c(F)c3)c(F)c(F)c21 [Example 161, 5′-((3-endo)-3-amino-8-azabicyclo[3.2.1]octane-8-carbonyl)-2′-(6,7-difluoro-1-(2-hydroxy-2-methylpropyl)-1H-benzo[d][1,2,3]triazol-5-yl)-3-fluoro-[1,1′-biphenyl]-4-carbonitrile] | 5.68 nM | – | – | – | – | – | 14% |
